These results are taken from patent publication US10179138B2, “Pharmaceutical composition comprising 7β-hydroxycholesterol intravenous administration” (Immunopharm AG, priority 2016, dated 2019).

For data set [1] the following is noted: cited from earlier work; for behaviour in aqueous solution over time: after several hours.
The subject of data set [2] is human cell lines of colon carcinoma. The following applies: cited from earlier work.
For data set [3] the following is noted: cited from earlier work.
Data set [4] is classed as physicochemical. Particulars: for decomposition of 7β-hydroxycholesterol after sterilization: sterilization at 120° C. On the procedure: The solution has been stored in glass vials.
A readily prepared infusion solution (on the basis of physiological saline solution) has been stored at room temperature (<25° C.) for 3 months.

The format of data set [5] is physicochemical. An excerpt: However, if you want to dilute the solution of 7β-hydroxycholesterol/solvent in an aqueous liquid, e.g. for the provision of an infusion solution, the substance flocculates. Thus, the inventors use a solubilizing agent in order to maintain 7β-hydroxycholesterol in the later infusion solution in solution.
Setting [6] is: readily prepared infusion solution (physiological saline), room temperature (<25° C.), 3 months.

Where two headings read alike, the source gives them in different places.

For “hydroxycholesteryl-bishemisuccinate-diethanolamine”, in data set [1], the “behaviour in aqueous solution over time” value was “starts to decompose and to flocculate”; the “stability in aqueous solution” value was “instable”. Also, the induction of apoptosis entry in data set [2] is reported as “induction of apoptosis”.
In the case of `CC(C)CCC[C@@H](C)[C@H]1CC[C@H]2[C@@H]3[C@@H](OC(=O)CCC(=O)[O-])C=C4C[C@@H](OC(=O)CCC(=O)[O-])CC[C@]4(C)[C@H]3CC[C@]12C.[Na+].[Na+]` [7β-hydroxycholesteryl-bishemisuccinate-disodium], in data set [1], the “behaviour in aqueous solution over time” value is “starts to decompose and to flocculate”; the “stability in aqueous solution” value is “instable”; the water solubility entry is “water soluble”. The induction of apoptosis entry in data set [2] is reported as “induction of apoptosis”.
For `CC(C)CCC[C@@H](C)[C@H]1CC[C@H]2[C@@H]3[C@@H](O)C=C4C[C@@H](O)CC[C@]4(C)[C@H]3CC[C@]12C` [7β-hydroxycholesterol], the solubility in water result in data set [3] was “insoluble in water”. The “decomposition of 7β-hydroxycholesterol on storage” value in data set [4] (concentrate stored at 40° C. for 3 months in glass vials) is “did not show a decomposition”. In addition, in data set [4] (concentrate), the “decomposition of 7β-hydroxycholesterol after sterilization” value is recorded as “remained stable”. Besides, in data set [4] (readily prepared infusion solution (physiological saline solution)), the “decomposition of 7β-hydroxycholesterol after sterilization” value is recorded as “remained stable”. Also, in data set [4] (setting [6]), the “appearance / flocculation of solution on storage” value is reported as “remained clear, there was no flocculation” and the “decrease of content of 7β-hydroxycholesterol by HPLC after storage” value was “could not be determined”. In data set [5], the “behaviour on dilution of solvent solution in aqueous liquid” value was “flocculates”, the “solubility in water soluble organic solvent” value is “excellent solubility” and the “stability of solution in water soluble organic solvent” value is given as “remain stable for years”.
